{"source": "paper doi:10.1101/2023.02.14.528391v1", "about": "(biorxiv, 2023)", "key": {"[1]": {"molecular_target": "T1, hERG potassium channel (Homo sapiens, UniProt Q12809)", "T1 sequence (Q12809 whole entry)": "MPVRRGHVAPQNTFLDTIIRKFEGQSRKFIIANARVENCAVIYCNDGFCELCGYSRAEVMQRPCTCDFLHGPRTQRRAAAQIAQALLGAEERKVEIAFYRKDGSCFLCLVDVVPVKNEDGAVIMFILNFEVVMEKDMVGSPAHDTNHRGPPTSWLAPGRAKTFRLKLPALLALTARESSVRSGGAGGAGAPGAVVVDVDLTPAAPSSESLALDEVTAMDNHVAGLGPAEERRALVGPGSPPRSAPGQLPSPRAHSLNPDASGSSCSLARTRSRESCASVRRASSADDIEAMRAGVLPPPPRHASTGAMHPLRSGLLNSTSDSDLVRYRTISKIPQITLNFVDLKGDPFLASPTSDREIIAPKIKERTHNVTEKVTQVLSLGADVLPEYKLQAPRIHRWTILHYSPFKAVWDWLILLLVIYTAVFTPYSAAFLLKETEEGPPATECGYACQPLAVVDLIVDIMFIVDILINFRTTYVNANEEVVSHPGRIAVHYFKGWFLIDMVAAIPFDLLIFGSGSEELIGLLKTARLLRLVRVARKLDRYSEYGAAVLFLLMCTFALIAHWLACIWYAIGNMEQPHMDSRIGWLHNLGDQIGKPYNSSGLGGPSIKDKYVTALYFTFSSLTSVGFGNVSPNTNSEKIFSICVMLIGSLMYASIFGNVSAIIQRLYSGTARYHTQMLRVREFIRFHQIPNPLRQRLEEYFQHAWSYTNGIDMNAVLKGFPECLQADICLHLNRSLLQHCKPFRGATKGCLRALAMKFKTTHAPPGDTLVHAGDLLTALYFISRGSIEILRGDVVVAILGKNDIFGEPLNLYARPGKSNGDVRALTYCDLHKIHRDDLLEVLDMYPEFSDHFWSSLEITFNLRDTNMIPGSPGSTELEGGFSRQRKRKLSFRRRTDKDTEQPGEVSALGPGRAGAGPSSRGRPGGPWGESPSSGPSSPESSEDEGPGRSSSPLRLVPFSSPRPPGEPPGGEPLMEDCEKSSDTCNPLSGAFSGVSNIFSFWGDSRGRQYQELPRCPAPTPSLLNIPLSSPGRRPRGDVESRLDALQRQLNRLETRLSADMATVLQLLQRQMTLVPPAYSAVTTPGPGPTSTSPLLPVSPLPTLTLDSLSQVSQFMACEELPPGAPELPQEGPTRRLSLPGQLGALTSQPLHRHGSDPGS", "assay": "radioligand competition binding, membranes"}, "[2]": {"molecular_target": "T1, hERG potassium channel", "assay": "in vitro", "conditions": "% inhibition"}, "[3]": {"molecular_target": "T1, hERG potassium channel", "assay": "biochemical", "conditions": "hERG / IC50 (nM)"}, "[4]": {"molecular_target": "T1, hERG potassium channel", "assay": "biochemical", "conditions": "hERG / Ki (nM), Synthesis=Enamine"}}, "note": "pKi: −log10 of the molar value.", "data": [{"compound": "CN(C)CCCn1nc(-c2ccc(F)cc2)c2ccccc2c1=O", "note": "[compound 1, s_49__14518112__1114614]", "values": [{"measurement": "pKi", "setting": "[1]", "value": 5.83}]}, {"compound": "CN(C)CCCn1nc(-c2cccs2)c2ccccc2c1=O", "note": "[compound 2, s_49__14518112__101877]", "values": [{"measurement": "pKi", "setting": "[1]", "value": 6.02}]}, {"compound": "CN(C)CCCn1nc(-c2ccc(Cl)cc2)c2ccccc2c1=O", "note": "[compound 3, s_49__14518112__88929]", "values": [{"measurement": "pKi", "setting": "[1]", "value": 6.19}]}, {"compound": "CN(C)CCN(Cc1ccccc1)c1nc2cccc(F)c2s1", "note": "[compound 4, s_27__7100858__10689034]", "values": [{"measurement": "pKi", "setting": "[1]", "value": 5.80}]}, {"compound": "CN(C)CCCc1nc2ccccc2n1Cc1ccccc1", "note": "[compound 5, GMD_18471]", "values": [{"measurement": "inhibition at 10 µM", "setting": "[2]", "value": 88.9, "unit": "%"}, {"measurement": "IC50", "setting": "[3]; Synthesis=NBI", "value": 565, "unit": "nM"}, {"measurement": "pKi", "setting": "[1]", "value": 6.40}]}, {"compound": "CN(C)CCN(Cc1ccccc1F)C(=O)N1CCCc2c(Cl)ccnc21", "note": "[s_272164____17323936____17325014]", "values": [{"measurement": "inhibition at 10 µM", "setting": "[2]", "value": 90.6, "unit": "%"}, {"measurement": "IC50", "setting": "[3]; Synthesis=Enamine", "value": 425, "unit": "nM"}, {"measurement": "Ki", "setting": "[4]", "value": 300, "unit": "nM"}]}]}
